Reference: patent US9937178B2, “Methods of identifying and using MDM2 inhibitors” (DUKE UNIVERSITY, priority 2011, dated 2018)

Experiments:
Mcl-1 [1] = experiment: Immunoblot of Mcl-1 protein levels; assay type: cell-based; details: 1 μM lapatinib
Description: FIG. 3 is a set of photographs showing that Mcl-1 is stabilized in lapatinib-resistant cells. […] FIG. 3B is a set of immunoblots showing the levels of HER2 and phospho-HER2 in untreated cells and cells treated with lapatinib. Cells were treated with or without lapatinib (1 μM) for 24 hours in the presence of the caspase inhibitor z-VAD (50 μM). The cells were harvested and cell lysates were immunoblotted using antibodies against phospho-HER2 (Y877) and total HER2. FIG. 3C is an immunoblot for phospho-AKT (T308) and total AKT. BT474 and rBT474 cells were treated with 1 μM lapatinib in the presence of 50 μM z-VAD. At the indicated time points, the cells were harvested and immunoblotted. FIG. 3D is an immunoblot for phospho-Erl1/2(T202/Y204) and total Erk1/2. BT474 and rBT474 cells were treated with 1 μM lapatinib in the presence of 50 μM z-VAD. At the indicated time points, the cells were harvested and immunoblotted. FIG. 3E is an immunoblot for Mcl-1, Bim, and Actin. BT474 and rBT474 cells (left) or SKBR3 and rSKBR3 cells (right) were treated with 1 μM lapatinib. The cells were harvested at the indicated time points and immunoblotted. FIG. 3F is an autoradiograph showing the ^35[S] radioactivity in lysates containing ^35[S]-Mcl-1 at the indicated time points. ^35[S]-labeled Mcl-1 protein was incubated in cell-free lysates prepared from BT474 and rBT474 cells (top) or SKBR3 and rSKBR3 cells (bottom). FIG. 3G is an autograph showing the ^35[S]-labeled Mcl-1 to monitor Mcl-1 stability over time. The ^35[S]-labeled Mcl-1 was incubated in lysates prepared from rBT474 cells treated with or without 1 μM lapatinib. FIG. 3H is an immunoblot for HA. SKBR3 or rSKBR3 cells were co-transfected with FLAG-Mcl-1 and HA-Ubiquitin (Ub). […] Cells were harvested after treatment with 10 μM MG 132 for 4 hours. FLAG-Mcl-1 was retrieved by immunoprecipitation using anti-flag agarose, and Mcl-1 ubiquitylation was analyzed by immunoblotting for HA (*non-specific band, **IgG heavy chain).

rBT474 xenografts = experiment: rBT474 mammary fat pad xenograft; details: 100 mg/kg each drug, twice daily by oral gavage
Description: Forty-eight hours after siRNA transfection, cells were treated with 1 μM lapatinib for 48 hours, and cells were harvested and subjected to Annexin V staining. The percentage of Annexin V-positive cells was analyzed by FACS. Results are expressed as a mean percentage±SEM and analyzed by t-test (*P<0.05). […] The oral administration of lapatinib (100 mg/kg, twice daily by oral gavage) began when the average tumor volume surpassed 300 mm^3. Results are expressed as a mean percentage±SEM. […] After 36 hours, cells were harvested and immunoblotted. […] BT474 and rBT474 cells were injected into the mammary fad pad of each mouse. When tumors developed to a size of 200 mm^3, the mice were randomly assigned to receive vehicle, lapatinib (100 mg/kg), Nutlin-3 (100 mg/kg), or Lapatinib+Nutlin-3 and treated twice daily by oral gavage. Results are expressed as a mean percentage±SEM. […] Percentage of apoptotic cell death was measured by FACS analysis using Annexin V. Results are expressed as a mean percentage±SEM of Annexin V-positive cells (*P<0.05 by t-test).
Six week-old female nude mice were purchased from NCI Frederic. Xenograft tumors were produced by injection into the mammary fat pad with cells (10×10^6). Tumor volumes were calculated every 3-4 days based on caliper measurements of the short (a) and long (b) tumor diameters (volume=a2b/2). […]

CAS mRNA = experiment: Quantitative real-time PCR of CAS mRNA; assay type: cell-based; details: sensitive or resistant cells
[2] = tested on: caspase-9 / caspase-3 activation; experiment: Cytochrome c-induced caspase activation in cell lysates; assay type: cell-based; details: lysates of resistant cells cultured in the presence of lapatinib
Description: Cell lysates for apoptotic assays were prepared as described previously using buffer A (20 mM HEPES [pH 7.4], 10 mM KCl, 1.5 mM MgCl2, 1 mM EDTA, 1 mM EGTA, 1 mM dithiothreitol, 1 mM phenylmethylsulfonyl fluoride, 5 μg/ml leupeptin, and 5 μg/ml aprotinin). […]
Colorimetric caspase assays were performed by incubating cell lysate (3 μl) in 90 μl DEVDase buffer (50 mM HEPES [pH 7.5], 100 mMNaCl, 0.1% CHAPS, 10 mMDTT, 1 mMEDTA, 10% glycerol) containing the peptide substrate, Ac-DEVD-pNA (200 mM final concentration; BIOMOL Research Labs). […] Absorbance of the colorimetric product was measured at 405 nm using a Bio-Rad microplate reader.

Mcl-1 [3] = experiment: Mcl-1 ubiquitylation (FLAG-Mcl-1 / HA-Ub immunoprecipitation); assay type: cell-based; details: 1 μM lapatinib, 24 hours
Description: FIG. 3 is a set of photographs showing that Mcl-1 is stabilized in lapatinib-resistant cells. […] FIG. 3B is a set of immunoblots showing the levels of HER2 and phospho-HER2 in untreated cells and cells treated with lapatinib. Cells were treated with or without lapatinib (1 μM) for 24 hours in the presence of the caspase inhibitor z-VAD (50 μM). The cells were harvested and cell lysates were immunoblotted using antibodies against phospho-HER2 (Y877) and total HER2. FIG. 3C is an immunoblot for phospho-AKT (T308) and total AKT. BT474 and rBT474 cells were treated with 1 μM lapatinib in the presence of 50 μM z-VAD. At the indicated time points, the cells were harvested and immunoblotted. FIG. 3D is an immunoblot for phospho-Erl1/2(T202/Y204) and total Erk1/2. BT474 and rBT474 cells were treated with 1 μM lapatinib in the presence of 50 μM z-VAD. At the indicated time points, the cells were harvested and immunoblotted. […] FIG. 3F is an autoradiograph showing the ^35[S] radioactivity in lysates containing ^35[S]-Mcl-1 at the indicated time points. ^35[S]-labeled Mcl-1 protein was incubated in cell-free lysates prepared from BT474 and rBT474 cells (top) or SKBR3 and rSKBR3 cells (bottom). […] FLAG-Mcl-1 was retrieved by immunoprecipitation using anti-flag agarose, and Mcl-1 ubiquitylation was analyzed by immunoblotting for HA (*non-specific band, **IgG heavy chain). […]

Erk1/2 = experiment: Immunoblot of phospho-Erk1/2 in lapatinib-treated cells; assay type: cell-based; details: sensitive and resistant cells, 1 μM lapatinib, 50 μM z-VAD
rAU565-derived tumor = experiment: rAU565 mammary fat pad xenograft; details: 100 mg/kg each drug, twice daily by oral gavage
Description: Six week-old female nude mice were purchased from NCI Frederic. Xenograft tumors were produced by injection into the mammary fat pad with cells (10×10^6). Tumor volumes were calculated every 3-4 days based on caliper measurements of the short (a) and long (b) tumor diameters (volume=a2b/2). […] Mice were dosed orally with vehicle alone, lapatinib (100 mg/kg), Nutlin-3 (100 mg/kg), or combination of both twice daily by gavage.

CAS-MDM2 interaction = molecular target: T1, CAS-MDM2 interaction (Homo sapiens, UniProt Q00987); experiment: CAS-MDM2 co-immunoprecipitation; assay type: cell-based; details: 1 μM lapatinib, 24 hours
T1 construct: association of endogenous MDM2 was analyzed by immunoblotting; expressed in transfected cells; host or cells: BT474 and rBT474 cells transfected with FLAG-CAS; MDM2 endogenous
Description: BT474 and rBT474 (left) or AU565 and rAU565 cells (right) cultured in the absence of lapatinib for one week were treated with 1 μM lapatinib and the cells were harvested at various time points. FIG. 11B is an immmunoblot for CAS and Actin. rBT474 cells were maintained in the presence of 1 M lapatinib and the cells were harvested at various time points following removal of lapatinib. […] BT474 and rBT474 cells were transiently transfected with FLAG-tagged CAS and subsequently treated with 50 μg/ml cycloheximide (CHX) and 1 μM lapatinib and the cells were harvested at various time points. […] BT474 and rBT474 (left) or SKBR3 and rSKBR3 cells (right) were co-transfected with FLAG-CAS and HA-Ub. Cells were treated with 1 μM lapatinib for 24 hours in the presence of z-VAD. […] FIG. 11E is an immunoblot for FLAG-tagged proteins retrieved by immunoprecipitation and association with MDM2. […] FIG. 11F is an immunoblot for CAs after immunoprecipitation for FLAG. […] Cells were treated with 10 μM MG132 for 3 hours. […] FIG. 11I is an immunoblot for MDM2 or CAs after immunoprecipitation with FLAG. BT474 and rBT474 cells were transfected with FLAG-CAS. Cells were treated with 1 μM lapatinib for 24 hours in the presence of z-VAD. After treatment with 10 μM MG132 for 5 hours, FLAG-CAS was retrieved by immunoprecipitation and association of endogenous MDM2 was analyzed by immunoblotting. […]

PP5 = experiment: Immunoblot of PP5 protein levels; assay type: cell-based; details: 1 μM lapatinib
Description: FIG. 7 is a set of photographs and graphs showing PP5 stability and post-cytochrome c protection in lapatinib-resistant cells. FIG. 7A is an immunoblot for caspase-9 (cleaved and non-cleaved) and cleaved caspase-3 (C9 and C3, respectively) showing rBT474 cells cultured in the absence or presence of 1 μM lapatinib for one week, as compared to BT474 cells which were maintained without lapatinib. Cytosolic lysates prepared from BT474 or rBT474 were incubated with 1 mM dATP and various amounts of cytochrome c (CC). FIG. 7B is a set of graphs showing Caspase 3 activity in the indicated cell lysates over time. Caspase-3 activity was assayed by measuring cleavage of DEVD-pNA following incubation of the cell lysates with 1 mM dATP and various concentrations of cytochrome c. FIG. 7C is an autoradiograph of ^32P and an immunoblot showing the percentage of the protein phosphorylated. In the presence of [γ-^32P]ATP, recombinant His-tagged HSP90β proteins (wild type and the indicated mutants) on nickel beads were incubated with the HSP90β-targeted kinase casein kinase 2. FIG. 7D is an autoradiograph and corresponding immunoblot showing BT474 or rBT474 cells after being cultured in the absence or presence of 1 μM lapatinib for 24 hours in the presence of z-VAD. Recombinant His-tagged HSP90β protein on nickel beads was incubated with the cell lysates in the presence of [γ-^32P]ATP. FIG. 7E is an immunoblot for phospho-Hsp90β (Ser226) and total HSP90β at various time points. […] FIG. 7F is a set of graphs showing FACS analysis for the phosphorylation status of Hsp90β (Ser255). BT474 or rBT474 cells cultured in the presence of 1 μM lapatinib for 24 hours were fixed with formaldehyde and incubated with phospho-Hsp90β (Ser255) antibody followed by an Alexa488-conjugated secondary antibody. FIG. 7G is an immunoblot for PP5 and actin at the indicated time points. BT474 and rBT474 (left) or AU565 and rAU565 cells (right) were treated with 1 μM lapatinib. FIG. 7H is an autoradiograph of immunoprecipitated FLAG-PP5 using an anti-FLAG agarose. […]

HSP90β = HSP90β phosphorylation (Ser226, Ser255); assay type: cell-based
Description: FIG. 7C is an autoradiograph of ^32P and an immunoblot showing the percentage of the protein phosphorylated. In the presence of [γ-^32P]ATP, recombinant His-tagged HSP90β proteins (wild type and the indicated mutants) on nickel beads were incubated with the HSP90β-targeted kinase casein kinase 2. FIG. 7D is an autoradiograph and corresponding immunoblot showing BT474 or rBT474 cells after being cultured in the absence or presence of 1 μM lapatinib for 24 hours in the presence of z-VAD. Recombinant His-tagged HSP90β protein on nickel beads was incubated with the cell lysates in the presence of [γ-^32P]ATP. FIG. 7E is an immunoblot for phospho-Hsp90β (Ser226) and total HSP90β at various time points. BT474 or rBT474 cells were treated with 1 μM lapatinib for the indicated amount of time. FIG. 7F is a set of graphs showing FACS analysis for the phosphorylation status of Hsp90β (Ser255). BT474 or rBT474 cells cultured in the presence of 1 μM lapatinib for 24 hours were fixed with formaldehyde and incubated with phospho-Hsp90β (Ser255) antibody followed by an Alexa488-conjugated secondary antibody.

T1 sequence (Q00987 whole entry): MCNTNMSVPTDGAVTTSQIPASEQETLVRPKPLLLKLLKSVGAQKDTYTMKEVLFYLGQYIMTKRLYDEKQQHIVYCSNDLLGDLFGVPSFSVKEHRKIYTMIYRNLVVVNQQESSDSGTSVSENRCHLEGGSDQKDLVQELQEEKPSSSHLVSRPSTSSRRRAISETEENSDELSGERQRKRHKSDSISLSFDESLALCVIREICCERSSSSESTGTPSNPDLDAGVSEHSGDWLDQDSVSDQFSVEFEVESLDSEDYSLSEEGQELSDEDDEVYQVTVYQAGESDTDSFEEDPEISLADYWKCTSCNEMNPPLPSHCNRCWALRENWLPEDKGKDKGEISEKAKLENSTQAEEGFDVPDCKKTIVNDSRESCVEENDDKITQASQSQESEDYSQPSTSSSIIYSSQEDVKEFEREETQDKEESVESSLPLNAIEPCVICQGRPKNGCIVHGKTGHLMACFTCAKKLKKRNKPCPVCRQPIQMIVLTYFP

## CS(=O)(=O)CCNCc1ccc(-c2ccc3ncnc(Nc4ccc(OCc5cccc(F)c5)c(Cl)c4)c3c2)o1 [lapatinib]
Mcl-1 [1]; resistant cells
  Mcl-1 protein levels: increased
Mcl-1 [1]; sensitive cells
  Mcl-1 protein levels: decreased
rBT474 xenografts
  rBT474-derived tumor growth: Neither lapatinib nor Nutlin-3 inhibited
CAS mRNA
  CAS mRNA levels: did not cause a reduction
[2]
  cytochrome c-induced caspase activation: strong defects in caspase activation
Mcl-1 [3]; SKBR3 cells
  Mcl-1 ubiquitylation: enhanced
Mcl-1 [3]; rSKBR3 cells
  Mcl-1 ubiquitylation: diminished
Erk1/2
  phosphorylation of Erk1/2: attenuated
rAU565-derived tumor
  rAU565-derived tumor growth: not rAU565-derived tumor growth
CAS-MDM2 interaction; BT474 cells
  CAS-MDM2 interaction: decreased
CAS-MDM2 interaction; rBT474 cells
  CAS-MDM2 interaction: enhanced
PP5; resistant cells
  PP5 levels: unaltered
PP5; sensitive cells
  PP5 levels: gradual decrease
HSP90β; lapatinib-treated resistant cells compared to sensitive cells
  HSP90β phosphorylation at both Ser226 and Ser255: markedly decreased
HSP90β; normal BT474 cells, 1 μM lapatinib
  HSP90β phosphorylation: did not prevent
